# Where “and” joins values, the source holds several entries; their conditions need not be identical. Equal values may be shown once.
# Molecular target: T1, Sphingosine 1-phosphate receptor 4 (Homo sapiens, UniProt O95977)
# T1 sequence (O95977 whole entry): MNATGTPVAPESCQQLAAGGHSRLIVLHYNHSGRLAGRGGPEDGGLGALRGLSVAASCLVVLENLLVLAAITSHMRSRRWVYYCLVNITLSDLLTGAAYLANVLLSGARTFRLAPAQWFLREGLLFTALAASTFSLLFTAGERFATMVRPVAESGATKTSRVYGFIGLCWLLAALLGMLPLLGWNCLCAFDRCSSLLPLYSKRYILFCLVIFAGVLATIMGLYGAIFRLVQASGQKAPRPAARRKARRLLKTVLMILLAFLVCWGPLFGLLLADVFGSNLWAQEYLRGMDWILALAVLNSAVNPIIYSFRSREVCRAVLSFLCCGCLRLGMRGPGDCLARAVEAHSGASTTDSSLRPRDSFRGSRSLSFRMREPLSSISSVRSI
smiles,measurement,value
CCCCCCCCCCCCC/C=C\C(O)C(N)COP(=O)(O)O (stereo unspecified) [{[(4Z)-2-amino-3-hydroxyoctadec-4-en-1-yl]oxy}phosphonic acid],Ki,0.021 µM and 0.064 µM and 0.027 µM and 0.032 µM and 0.028 µM and 0.033 µM
